From patent US20140328757A1, “COMPOSITIONS COMPRISING ASCORBIC ACID AND AN IMAGING AGENT AND RELATED METHODS” (Lantheus Medical Imaging, Inc., priority 2011, published 2014)

What was measured:
[1] = Concentration of ascorbic acid and the stability (radiochemical purity over time) of an imaging agent; format: physicochemical; details: pH 5.8
Protocol: (§1) was then collected, diluted with an ascorbic acid solution (10-15 mL), then passed through a C18 Sep-Pak® cartridge, previously conditioned with 10 mL of ethanol followed by 10 mL of an ascorbic acid solution; The imaging agent was retained within the C18 resin matrix and the filtrate discarded. The cartridge was then successively washed with an ascorbic acid solution (10 mL), the filtrate discarded, then absolute ethanol (≦0.5 mL) and the filtrate collected. The resulting ethanol concentrate of the imaging agent was then diluted with an ascorbic acid solution prior to use.
(§2) Both chemical integrity and overall stability of a radiopharmaceutical composition is measured through determination of the change in RCP of the labeled compound over time using ITLC or more preferably HPLC. The advantage of using HPLC is that impurities caused by radiolytic degradation may be readily separated from the labeled compound under certain chromatographic conditions. […]
The stability of radiopharmaceutical compositions containing an imaging agent was assessed over a range of ascorbic acid concentration values. […] Each solution was then utilized in the preparation of the imaging agent described in Example 4, and the resulting compositions monitored for changes in radiochemical purity over time using the HPLC methods described in Example 5.

[2] = pH and the stability (radiochemical purity over time) of an imaging agent; format: physicochemical; details: ascorbic acid solutions with higher pH values (pH 5.8 and 6.5) versus more acidic compositions (pH 2.4-4.6)
Protocol: as §1, §2
Analytical HPLC was performed on an Agilent Technologies 1100 LC containing a radiometric detection system. Radiochemical impurities were evaluated using a Berthold radiation detector and a Waters Zorbax SB-C18 column (4.6×50 mm, 1.8 μm) using an isocratic elution (45:55 H2O/MeCN) at 1 mL/min […]
The stability of radiopharmaceutical compositions containing an imaging agent was assessed over a range of pH values. […]

[3] = Stability (radiochemical purity over time by HPLC) of radiopharmaceutical compositions over a range of ascorbic acid and radioactivity concentrations; format: physicochemical; details: pH 5.8
Source text: The radiochemical purity (RCP) of a labeled compound (i.e., as in Example 3) is known to be dependent on certain conditions of its preparation including, but not limited to, reaction temperature, solution pH and overall synthesis time. Once prepared with high RCP, the labeled compound is formulated into a radiopharmaceutical composition designed to stabilize the labeled compound over time. Certain radiopharmaceutical compositions of the present invention are effective in maintaining the stability of labeled compounds for up to 12 h.
(§3) Both chemical integrity and overall stability of a radiopharmaceutical composition is measured through determination of the change in RCP of the labeled compound over time using ITLC or more preferably HPLC. The advantage of using HPLC is that impurities caused by radiolytic degradation may be readily separated from the labeled compound under certain chromatographic conditions. […] Several HPLC methods have been developed for monitoring the stability of radiopharmaceutical compositions of the present invention:
Analytical HPLC was performed on an Agilent Technologies 1100 LC containing a radiometric detection system. Radiochemical impurities were evaluated using a Berthold radiation detector and a Waters Zorbax SB-C18 column (4.6×50 mm, 1.8 μm) using an isocratic elution (45:55 H2O/MeCN) at 1 mL/min
(§4) Analytical HPLC was performed on an Agilent Technologies 1100 LC containing a spectrophotometric detection system. Non-radiochemical impurities were evaluated at 295 nm using a Waters Zorbax SB-C18 column (4.6×50 mm, 1.8 μm) with an 8%/min gradient from 20-100% MeCN containing 0.1% formic acid and 10% H2O at 1 mL/min
Analytical HPLC was performed on an Agilent Technologies 1100 LC containing both radiometric and spectrophotometric detection systems. Radiochemical impurities were evaluated using a Raytest GabiStar radiation detector and non-radiochemical impurities were evaluated at 295 nm both using a Waters Zorbax SB-C18 column (4.6×50 mm, 1.8 μm) with a 6%/min gradient from 20-50% MeCN, followed by a 1.4%/min gradient from 50-60% MeCN, followed by a 2%/min gradient from 60-70% MeCN each containing 0.1% formic acid and 10% H2O at 1 mL/min.
Analytical HPLC was performed on an Agilent Technologies 1100 LC containing both radiometric and spectrophotometric detection systems. Radiochemical impurities were evaluated using a Raytest GabiStar radiation detector and non-radiochemical impurities were evaluated at 295 nm both using a Waters Zorbax SB-C18 column (4.6×50 mm, 1.8 μm) with a 30%/min gradient from 30-60% MeCN, followed by a 2 min isocratic hold at 60% MeCN, followed by a 5%/min gradient from 60-80% MeCN each containing 0.1% trifluoroacetic acid and 10% H2O at 1 mL/min
Aqueous [^18F]fluoride, as prepared in Example 1, was filtered through an anion exchange column to remove unreacted [^18O]H2O; [^18F]fluoride was retained within the […] resin matrix. The column was then washed with aqueous Et4NHCO3 with transfer to the reaction vessel. The resulting solution was diluted with MeCN then concentrated to dryness using elevated temperature and reduced pressure. The mixture of anhydrous [^18F]Et4NF and Et4NHCO3 thus obtained was treated with the acetonitrile solution of the imaging agent precursor as prepared in Example 2, then warmed to 85-120° C. and maintained 5-20 min. After cooling, the solution was diluted with H2O or H2O/MeCN then directly purified by HPLC using a 45:55 H2O/MeCN eluent. The main product peak was collected and diluted with ascorbic acid (10 mL of a 0.28 M solution; pH 2).
was retained within the C18 resin matrix and the filtrate discarded. The cartridge was successively washed with ascorbic acid (10 mL of a 0.28 M solution in H2O; pH 2), the filtrate discarded, then absolute EtOH (≦0.50 mL), and the filtrate collected. […]

[4] = pH and the chemical integrity (rate of non-radioactive impurity formation) of the non-radioactive congener; format: physicochemical; details: ascorbic acid 50 mg/mL, congener 5 μg/mL, ethanol 5%, treated with [18F]NaF
Protocol: as §3, §4
The chemical integrity of radiopharmaceutical compositions containing the non-radioactive congener of the imaging agent (2-(tert-butyl)-4-chloro-5-((4-((2-fluoroethoxy)methyl)benzyl)oxy)pyridazin-3(2H)-one) was assessed over a range of pH values. […] The resulting solutions were treated with [^18F]NaF then monitored for changes in chemical purity (non-radioactive impurities) over time using the HPLC methods outlined in Example 5.

[5] = cited from earlier work

CC(C)(C)n1ncc(OCc2ccc(COCC[18F])cc2)c(Cl)c1=O [imaging agent, 2-tert-butyl-4-chloro-5-[4-(2-[18F]fluoro-ethoxymethyl)-benzyloxy]-2H-pyridazin-3-one]
RCP (FIG. 3) ([1]; ascorbic acid 20 mg/mL): overall decrease in RCP | Initial RCP and variability in RCP over time (FIG. 3) ([1]; ascorbic acid 200 to 50 mg/mL): do not significantly change | Initial RCP and change in RCP over time (FIG. 1) [2]: markedly less initial stability and stability to storage | Radiochemical Purity ([3]; 0 h, ascorbic acid 30 mg/mL, 29.5 mCi/mL, Siemens GN module): 100.0% | Radiochemical Purity ([3]; 0 h, ascorbic acid 30 mg/mL, 68.0 mCi/mL, Eckert & Ziegler module): 100.0% | Radiochemical Purity ([3]; 0 h, ascorbic acid 50 mg/mL, 44.8 mCi/mL, Eckert & Ziegler module): 100.0% | Radiochemical Purity ([3]; 0 h, ascorbic acid 50 mg/mL, 47.0 mCi/mL, Siemens GN module): 100.0% | Radiochemical Purity ([3]; 0 h, ascorbic acid 50 mg/mL, 50.0 mCi/mL, Siemens RN module): 100.0% | Radiochemical Purity ([3]; 0 h, ascorbic acid 50 mg/mL, 65.4 mCi/mL, GE MX module): 100.0% | Radiochemical Purity ([3]; 0 h, ascorbic acid 50 mg/mL, 115.9 mCi/mL, Siemens GN module): 99.7% | Radiochemical Purity ([3]; 3 h, ascorbic acid 30 mg/mL, 29.5 mCi/mL, Siemens GN module): 100.0% | Radiochemical Purity ([3]; 3 h, ascorbic acid 30 mg/mL, 68.0 mCi/mL, Eckert & Ziegler module): 97.6% | Radiochemical Purity ([3]; 3 h, ascorbic acid 50 mg/mL, 44.8 mCi/mL, Eckert & Ziegler module): 100.0% | Radiochemical Purity ([3]; 3 h, ascorbic acid 50 mg/mL, 47.0 mCi/mL, Siemens GN module): 100.0% | Radiochemical Purity ([3]; 3 h, ascorbic acid 50 mg/mL, 50.0 mCi/mL, Siemens RN module): 98.2% | Radiochemical Purity ([3]; 3 h, ascorbic acid 50 mg/mL, 65.4 mCi/mL, GE MX module): 100.0% | Radiochemical Purity ([3]; 3 h, ascorbic acid 50 mg/mL, 115.9 mCi/mL, Siemens GN module): 97.1% | Radiochemical Purity ([3]; 6 h, ascorbic acid 30 mg/mL, 29.5 mCi/mL, Siemens GN module): 100.0% | Radiochemical Purity ([3]; 6 h, ascorbic acid 30 mg/mL, 68.0 mCi/mL, Eckert & Ziegler module): 96.7% | Radiochemical Purity ([3]; 6 h, ascorbic acid 50 mg/mL, 44.8 mCi/mL, Eckert & Ziegler module): 100.0% | Radiochemical Purity ([3]; 6 h, ascorbic acid 50 mg/mL, 47.0 mCi/mL, Siemens GN module): 99.2% | Radiochemical Purity ([3]; 6 h, ascorbic acid 50 mg/mL, 50.0 mCi/mL, Siemens RN module): 99.0% | Radiochemical Purity ([3]; 6 h, ascorbic acid 50 mg/mL, 65.4 mCi/mL, GE MX module): 98.7% | Radiochemical Purity ([3]; 6 h, ascorbic acid 50 mg/mL, 115.9 mCi/mL, Siemens GN module): 97.1% | Radiochemical Purity ([3]; 9 h, ascorbic acid 30 mg/mL, 29.5 mCi/mL, Siemens GN module): 100.0% | Radiochemical Purity ([3]; 9 h, ascorbic acid 30 mg/mL, 68.0 mCi/mL, Eckert & Ziegler module): 96.2% | Radiochemical Purity ([3]; 9 h, ascorbic acid 50 mg/mL, 44.8 mCi/mL, Eckert & Ziegler module): 100.0% | Radiochemical Purity ([3]; 9 h, ascorbic acid 50 mg/mL, 47.0 mCi/mL, Siemens GN module): 99.4% | Radiochemical Purity ([3]; 9 h, ascorbic acid 50 mg/mL, 50.0 mCi/mL, Siemens RN module): 98.0% | Radiochemical Purity ([3]; 9 h, ascorbic acid 50 mg/mL, 65.4 mCi/mL, GE MX module): 99.3% | Radiochemical Purity ([3]; 9 h, ascorbic acid 50 mg/mL, 115.9 mCi/mL, Siemens GN module): 96.0% | Radiochemical Purity ([3]; 12 h, ascorbic acid 30 mg/mL, 29.5 mCi/mL, Siemens GN module): 100.0% | Radiochemical Purity ([3]; 12 h, ascorbic acid 30 mg/mL, 68.0 mCi/mL, Eckert & Ziegler module): 96.1% | Radiochemical Purity ([3]; 12 h, ascorbic acid 50 mg/mL, 44.8 mCi/mL, Eckert & Ziegler module): 100.0% | Radiochemical Purity ([3]; 12 h, ascorbic acid 50 mg/mL, 47.0 mCi/mL, Siemens GN module): 99.5% | Radiochemical Purity ([3]; 12 h, ascorbic acid 50 mg/mL, 50.0 mCi/mL, Siemens RN module): 98.2% | Radiochemical Purity ([3]; 12 h, ascorbic acid 50 mg/mL, 65.4 mCi/mL, GE MX module): 96.9% | Radiochemical Purity ([3]; 12 h, ascorbic acid 50 mg/mL, 115.9 mCi/mL, Siemens GN module): 96.0% | Initial RCP and variability in RCP over time ([3]; over 30 to 50 mg/mL ascorbic acid and 30 to 115 mCi/mL): do not significantly change

CC(C)(C)n1ncc(OCc2ccc(COCCF)cc2)c(Cl)c1=O [2-(tert-butyl)-4-chloro-5-((4-((2-fluoroethoxy)methyl)benzyl)oxy)pyridazin-3(2H)-one]
Reaction order of formation of certain non-radioactive impurities (FIG. 2) [4]: first order | Reduction in the rate of impurity formation (non-radioactive impurities, FIG. 2) ([4]; over the pH range considered (4.0-8.2)): ten-fold reduction

O=C1O[C@H]([C@@H](O)CO)C(O)=C1O [ascorbic acid]
pKa [5]: about 4.2
